This passage reports IC50 results from BindingDB's records for doi:10.1016/s0960-894x(02)00205-6 (Southern Methodist University, 2002).

pIC50: −log10 of the molar value.

A short description of this assay: Inhibitory activity against class A TEM-1 beta-lactamase.
In general, pIC50 refers to the IC50 on a negative log10 scale, so that one unit is a factor of ten. As to `O=C(O)C1=C(C(=O)O)N2C(=O)/C(=C/c3ccccn3)[C@H]2S(=O)(=O)C1` [Disodium; (R)-3-carboxy-5,5,8-trioxo-7-[1-pyridin-2-yl-meth-(Z)-ylidene]-5lambda*6*-thia-1-aza-bicyclo[4.2.0]oct-2-ene-2-carboxylate], the pIC50 was 4.98.
`O=C(/C=C/C1=C(C(=O)O)N2C(=O)/C(=C/c3ccccn3)[C@H]2S(=O)(=O)C1)NCc1ccccc1` [Sodium; (R)-3-((E)-2-benzylcarbamoyl-vinyl)-5,5,8-trioxo-7-[1-pyridin-2-yl-meth-(Z)-ylidene]-5lambda*6*-thia-1-aza-bicyclo[4.2.0]oct-2-ene-2-carboxylate]: the negative-log IC50 (pIC50) was 5.85.
`NC(=O)/C=C/C1=C(C(=O)O)N2C(=O)/C(=C/c3ccccn3)[C@H]2S(=O)(=O)C1` [Sodium; (R)-3-((E)-2-carbamoyl-vinyl)-5,5,8-trioxo-7-[1-pyridin-2-yl-meth-(Z)-ylidene]-5lambda*6*-thia-1-aza-bicyclo[4.2.0]oct-2-ene-2-carboxylate] showed a negative-log IC50 (pIC50) of 6.58.
For `O=C(/C=C/C1=C(C(=O)O)N2C(=O)/C(=C/c3ccccn3)[C@H]2S(=O)(=O)C1)NC1CC1` [Sodium; (R)-3-((E)-2-cyclopropylcarbamoyl-vinyl)-5,5,8-trioxo-7-[1-pyridin-2-yl-meth-(Z)-ylidene]-5lambda*6*-thia-1-aza-bicyclo[4.2.0]oct-2-ene-2-carboxylate] the value was 6.62.
`NNC(=O)/C=C/C1=C(C(=O)O)N2C(=O)/C(=C/c3ccccn3)[C@H]2S(=O)(=O)C1` [Sodium; (R)-3-((E)-2-hydrazinocarbonyl-vinyl)-5,5,8-trioxo-7-[1-pyridin-2-yl-meth-(Z)-ylidene]-5lambda*6*-thia-1-aza-bicyclo[4.2.0]oct-2-ene-2-carboxylate] gave a pIC50 of 6.41.
For the compound `O=C(/C=C/C1=C(C(=O)O)N2C(=O)/C(=C/c3ccccn3)[C@H]2S(=O)(=O)C1)NO` [Sodium; (R)-3-((E)-2-hydroxycarbamoyl-vinyl)-5,5,8-trioxo-7-[1-pyridin-2-yl-meth-(Z)-ylidene]-5lambda*6*-thia-1-aza-bicyclo[4.2.0]oct-2-ene-2-carboxylate], the pIC50 is 5.11.
In turn, `N=C(N)NCCNC(=O)C=CC1=C(C(=O)O)N2C(=O)C(=Cc3ccccn3)[C@H]2S(=O)(=O)C1` [Sodium; (R)-3-[(E)-2-(2-guanidino-ethylcarbamoyl)-vinyl]-5,5,8-trioxo-7-[1-pyridin-2-yl-meth-(Z)-ylidene]-5lambda*6*-thia-1-aza-bicyclo[4.2.0]oct-2-ene-2-carboxylate] gave a pIC50 of 8.08.
As to `O=C(/C=C/C1=C(C(=O)O)N2C(=O)/C(=C/c3ccccn3)[C@H]2S(=O)(=O)C1)NCCO` [Sodium; (R)-3-[(E)-2-(2-hydroxy-ethylcarbamoyl)-vinyl]-5,5,8-trioxo-7-[1-pyridin-2-yl-meth-(Z)-ylidene]-5lambda*6*-thia-1-aza-bicyclo[4.2.0]oct-2-ene-2-carboxylate], the pIC50 is 7.15.
`NCCCNC(=O)/C=C/C1=C(C(=O)O)N2C(=O)/C(=C/c3ccccn3)[C@H]2S(=O)(=O)C1` [Sodium; (R)-3-[(E)-2-(3-amino-propylcarbamoyl)-vinyl]-5,5,8-trioxo-7-[1-pyridin-2-yl-meth-(Z)-ylidene]-5lambda*6*-thia-1-aza-bicyclo[4.2.0]oct-2-ene-2-carboxylate] showed a pIC50 of 5.80.
On to `O=C(/C=C/C1=C(C(=O)O)N2C(=O)/C(=C/c3ccccn3)[C@H]2S(=O)(=O)C1)Nc1ccc(O)cc1` [Sodium; (R)-3-[(E)-2-(4-hydroxy-phenylcarbamoyl)-vinyl]-5,5,8-trioxo-7-[1-pyridin-2-yl-meth-(Z)-ylidene]-5lambda*6*-thia-1-aza-bicyclo[4.2.0]oct-2-ene-2-carboxylate], for which the pIC50 was 6.96.
Then `CN1CCN(C(=O)/C=C/C2=C(C(=O)O)N3C(=O)/C(=C/c4ccccn4)[C@H]3S(=O)(=O)C2)CC1` [Sodium; (R)-3-[(E)-3-(4-methyl-piperazin-1-yl)-3-oxo-propenyl]-5,5,8-trioxo-7-[1-pyridin-2-yl-meth-(Z)-ylidene]-5lambda*6*-thia-1-aza-bicyclo[4.2.0]oct-2-ene-2-carboxylate], with 7.28; and `O=C(O)C1=C(S(=O)(=O)c2ccccc2)CS(=O)(=O)[C@@H]2/C(=C\c3ccccn3)C(=O)N12` [Sodium; (R)-3-benzenesulfonyl-5,5,8-trioxo-7-[1-pyridin-2-yl-meth-(Z)-ylidene]-5lambda*6*-thia-1-aza-bicyclo[4.2.0]oct-2-ene-2-carboxylate], with 8.03.
For `O=C(O)C1=C(Br)CS(=O)(=O)[C@@H]2/C(=C\c3ccccn3)C(=O)N12` [Sodium; (R)-3-bromo-5,5,8-trioxo-7-[1-pyridin-2-yl-meth-(Z)-ylidene]-5lambda*6*-thia-1-aza-bicyclo[4.2.0]oct-2-ene-2-carboxylate] the value was 6.10; for `O=C(O)C1=C(Cl)CS(=O)(=O)[C@@H]2/C(=C\c3ccccn3)C(=O)N12` [Sodium; (R)-3-chloro-5,5,8-trioxo-7-[1-pyridin-2-yl-meth-(Z)-ylidene]-5lambda*6*-thia-1-aza-bicyclo[4.2.0]oct-2-ene-2-carboxylate], 5.74.
`O=C(O)C1=C(F)CS(=O)(=O)[C@@H]2/C(=C\c3ccccn3)C(=O)N12` [Sodium; (R)-3-fluoro-5,5,8-trioxo-7-[1-pyridin-2-yl-meth-(Z)-ylidene]-5lambda*6*-thia-1-aza-bicyclo[4.2.0]oct-2-ene-2-carboxylate] showed a negative-log IC50 (pIC50) of 5.74.
As to `O=C(O)C1=C(I)CS(=O)(=O)[C@@H]2/C(=C\c3ccccn3)C(=O)N12` [Sodium; (R)-3-iodo-5,5,8-trioxo-7-[1-pyridin-2-yl-meth-(Z)-ylidene]-5lambda*6*-thia-1-aza-bicyclo[4.2.0]oct-2-ene-2-carboxylate], the negative logarithm of the IC50 (pIC50) is 5.89.
Compound `CS(=O)(=O)C1=C(C(=O)O)N2C(=O)/C(=C/c3ccccn3)[C@H]2S(=O)(=O)C1` [Sodium; (R)-3-methanesulfonyl-5,5,8-trioxo-7-[1-pyridin-2-yl-meth-(Z)-ylidene]-5lambda*6*-thia-1-aza-bicyclo[4.2.0]oct-2-ene-2-carboxylate] gave a pIC50 of 8.12.
Then `CSC1=C(C(=O)O)N2C(=O)/C(=C/c3ccccn3)[C@H]2S(=O)(=O)C1` [Sodium; (R)-3-methylsulfanyl-5,5,8-trioxo-7-[1-pyridin-2-yl-meth-(Z)-ylidene]-5lambda*6*-thia-1-aza-bicyclo[4.2.0]oct-2-ene-2-carboxylate], with 5.97; and `O=C(/C=C/C1=C(C(=O)O)N2C(=O)/C(=C/c3ccccn3)[C@H]2S(=O)(=O)C1)Nc1c(F)c(F)c(F)c(F)c1F` [Sodium; (R)-5,5,8-trioxo-3-((E)-2-pentafluorophenylcarbamoyl-vinyl)-7-[1-pyridin-2-yl-meth-(Z)-ylidene]-5lambda*6*-thia-1-aza-bicyclo[4.2.0]oct-2-ene-2-carboxylate], with 5.37.
On to `O=C(O)C1=C(c2ccccc2)CS(=O)(=O)[C@@H]2/C(=C\c3ccccn3)C(=O)N12` [Sodium; (R)-5,5,8-trioxo-3-phenyl-7-[1-pyridin-2-yl-meth-(Z)-ylidene]-5lambda*6*-thia-1-aza-bicyclo[4.2.0]oct-2-ene-2-carboxylate], for which the pIC50 is 5.04.
In turn, `O=C(O)C1=C(Sc2ccccc2)CS(=O)(=O)[C@@H]2/C(=C\c3ccccn3)C(=O)N12` [Sodium; (R)-5,5,8-trioxo-3-phenylsulfanyl-7-[1-pyridin-2-yl-meth-(Z)-ylidene]-5lambda*6*-thia-1-aza-bicyclo[4.2.0]oct-2-ene-2-carboxylate] gave a pIC50 of 7.92.
`O=C(/C=C/C1=C(C(=O)O)N2C(=O)/C(=C/c3ccccn3)[C@H]2S(=O)(=O)C1)NCC(F)(F)F` [Sodium; (R)-5,5,8-trioxo-7-[1-pyridin-2-yl-meth-(Z)-ylidene]-3-[(E)-2-(2,2,2-trifluoro-ethylcarbamoyl)-vinyl]-5lambda*6*-thia-1-aza-bicyclo[4.2.0]oct-2-ene-2-carboxylate]: the negative logarithm of the IC50 (pIC50) was 7.11.
For `O=C(O)C1=C(c2cccs2)CS(=O)(=O)[C@@H]2/C(=C\c3ccccn3)C(=O)N12` [Sodium; (R)-5,5,8-trioxo-7-[1-pyridin-2-yl-meth-(Z)-ylidene]-3-thiophen-2-yl-5lambda*6*-thia-1-aza-bicyclo[4.2.0]oct-2-ene-2-carboxylate] the value was 5.45.
Then `O=C(O)C1=CCS(=O)(=O)[C@@H]2/C(=C\c3ccccn3)C(=O)N12` [Sodium; (R)-5,5,8-trioxo-7-[1-pyridin-2-yl-meth-(Z)-ylidene]-5lambda*6*-thia-1-aza-bicyclo[4.2.0]oct-2-ene-2-carboxylate], with 4.73.
